# Legend:
# [1] = test system: initially non-innervated internal anal sphincter (IAS) smooth muscle construct; assay: Real time force generation of bioengineered IAS construct, initially non-innervated, placed 1 mm away from the innervated construct (Example 1); format: cell-based, rabbit
# [2] = test system: intrinsically innervated internal anal sphincter (IAS) smooth muscle construct; assay: Real time force generation of bioengineered IAS construct, initially intrinsically innervated (Example 1); format: cell-based, rabbit
# [3] = test system: initially non-innervated rabbit colon circular smooth muscle construct; assay: Real time force generation of bioengineered colon smooth muscle construct, initially non-innervated (Example 2); format: cell-based
# [4] = test system: intrinsically innervated rabbit colon circular smooth muscle construct; assay: Real time force generation of bioengineered colon smooth muscle construct, intrinsically innervated (Example 2); format: cell-based
molecule,measurement,setting,value
CN1[C@@H]2CC[C@H]1C[C@@H](OC(=O)C(CO)c1ccccc1)C2 (some centres unmarked) [atropine],inhibition of acetylcholine-induced force generation by pre-treatment,[1],75%
same,inhibition of acetylcholine-induced force generation by pre-treatment,[2],90%
"CC(=O)OCC[N+](C)(C)C [Acetylcholine, acetylcholine]",average contraction induced by Ach,"[3]; 1 μM Ach, non-innervated colon constructs",130±28 μN
same,force generation induced by acetylcholine,"[1]; Acetylcholine 1 μM, day 20, initially non-innervated IAS construct",80 μN
same,average contraction induced by Ach,"[4]; 1 μM Ach, innervated colon constructs",150±24 μN
same,force generation induced by acetylcholine,"[2]; Acetylcholine 1 μM, day 20, innervated IAS construct",153 μN
"NC1=N[C@H](O)[C@H]2[C@H]3O[C@]4(O)O[C@@H]([C@@H](O)[C@@]2(N1)[C@@H]4O)[C@]3(O)CO [TTX, tetrodotoxin]",effect of TTX on EFS-induced relaxation,[3],completely blocked
same,effect of TTX on maximal Ach contraction,[3],reduced the maximal contraction
same,inhibition of VIP-induced relaxation in the presence of TTX,[3],50%
same,inhibition of EFS-induced relaxation by pre-treatment,[1],completely inhibited
same,inhibition of acetylcholine-induced force generation by pre-treatment,[1],40%
same,attenuation of peak maximal Ach contraction in the presence of TTX,[4],50-60%
same,effect of TTX preincubation on response to EFS,[4],completely abolished
same,inhibition of VIP-induced relaxation in the presence of TTX,[4],60%
same,inhibition of EFS-induced relaxation by pre-treatment,[2],completely inhibited
same,inhibition of acetylcholine-induced force generation by pre-treatment,[2],58%
"[Cl-].[K+] [KCl, potassium chloride]",average contraction induced by KCl,[3],224±42 μN
same,average contraction induced by KCl,[4],300±24 μN
vasoactive intestinal peptide [VIP],maximal relaxation induced by VIP,"[3]; 1 μM VIP, non-innervated colon constructs",120±18 μN
same,maximal relaxation induced by VIP,"[4]; 1 μM VIP, innervated colon constructs",145±15 μN
